Test results: PMC7615501 (Journal of immunology (Baltimore, Md. : 1950), 2021)

Legend:
CD8+ T cell clone 6C5 [1] = test: Activation of clone 6C5 by peptide-pulsed T2 cells, MIP-1β ELISA; assay type: cell-based, human; settings: high purity (>95%) peptide preparations
HLA-A*0201 = HLA-A*0201 (Homo sapiens, UniProt P04439, D140Y/D185E/D98H/E176V/E277Q/G131W/G231S/I119V/I121R/I166T/I218V/L300P/L318F/N151K/N90K/P208A/P217A/Q86G/Q94H/R138H/R169H/T345S); settings: earlier work; cited from earlier work
CD8+ T cell clone 6C5 [2] = settings: earlier work; cited from earlier work

| Substance | Functional response of clone 6C5, retest with high purity preparations (CD8+ T cell clone 6C5 [1]) | Binding to HLA-A*0201 (HLA-A*0201) | Recognition by CD8+ T cell clone 6C5 (CD8+ T cell clone 6C5 [2]) |
| --- | --- | --- | --- |
| LTAYMLLAI | inert | – | – |
| FMAYFGVSA | inert | – | – |
| LLSY(3-tBu)FGTPT | – | bound poorly to HLA-A*0201 | recognize |
